Experimental data taken from the NIST ThermoML archive (doi:10.1016/j.tca.2013.08.031).
Numbers after ± are expanded uncertainties.

Test: molar heat capacity at constant volume
Conditions: Fluid (supercritical or subcritical phases), Vacuum adiabatic calorimetry

CCC(C)O (stereo not given) [butan-2-ol]
Conditions	molar heat capacity at constant volume [J/K/mol]
462.76 K, Mass density=598.18 kg/m3	276.1 ± 2.8
462.95 K, Mass density=598.18 kg/m3	279.07 ± 2.8
463.15 K, Mass density=598.18 kg/m3	277.81 ± 2.9
463.35 K, Mass density=598.18 kg/m3	282.48 ± 3
463.45 K, Mass density=598.18 kg/m3	292.34 ± 3
463.74 K, Mass density=598.18 kg/m3	258.76 ± 2.7
463.93 K, Mass density=598.18 kg/m3	219.18 ± 2.4
464.13 K, Mass density=598.18 kg/m3	217.62 ± 2.4
464.33 K, Mass density=598.18 kg/m3	217.32 ± 2.4
464.53 K, Mass density=598.18 kg/m3	218.88 ± 2.3
464.72 K, Mass density=598.18 kg/m3	216.73 ± 2.2
464.92 K, Mass density=598.18 kg/m3	217.62 ± 2.2
465.11 K, Mass density=598.18 kg/m3	217.55 ± 2.2
465.31 K, Mass density=598.18 kg/m3	218.07 ± 2.2
467.66 K, Mass density=598.18 kg/m3	219.18 ± 2.2
467.86 K, Mass density=598.18 kg/m3	218.88 ± 2.2
468.05 K, Mass density=598.18 kg/m3	218.44 ± 2.2
468.25 K, Mass density=598.18 kg/m3	219.84 ± 2.2
468.45 K, Mass density=598.18 kg/m3	219.92 ± 2.2
469.23 K, Mass density=598.18 kg/m3	222.44 ± 2.2
469.42 K, Mass density=598.18 kg/m3	222.36 ± 2.2
481.46 K, Mass density=538.17 kg/m3	279.66 ± 2.8
481.66 K, Mass density=538.17 kg/m3	284.78 ± 2.9
481.85 K, Mass density=538.17 kg/m3	283.59 ± 2.9
482.04 K, Mass density=538.17 kg/m3	284.55 ± 2.9
482.24 K, Mass density=538.17 kg/m3	286.41 ± 2.9
482.43 K, Mass density=538.17 kg/m3	287.44 ± 2.9
482.62 K, Mass density=538.17 kg/m3	289.22 ± 2.9
482.81 K, Mass density=538.17 kg/m3	288.41 ± 2.9
483.01 K, Mass density=538.17 kg/m3	289 ± 2.9
483.2 K, Mass density=538.17 kg/m3	291.15 ± 3
483.39 K, Mass density=538.17 kg/m3	289.82 ± 2.9
483.58 K, Mass density=538.17 kg/m3	289.59 ± 2.9
483.78 K, Mass density=538.17 kg/m3	289.59 ± 2.9
487.62 K, Mass density=538.17 kg/m3	282.7 ± 2.9
487.81 K, Mass density=538.17 kg/m3	280.25 ± 2.8
488 K, Mass density=538.17 kg/m3	282.4 ± 2.8
488.19 K, Mass density=538.17 kg/m3	287.74 ± 2.9
488.39 K, Mass density=538.17 kg/m3	290.63 ± 2.9
489.53 K, Mass density=538.17 kg/m3	283.44 ± 2.9
489.73 K, Mass density=538.17 kg/m3	289.07 ± 2.9
489.92 K, Mass density=538.17 kg/m3	294.19 ± 3
490.11 K, Mass density=538.17 kg/m3	289.3 ± 2.9
490.87 K, Mass density=538.17 kg/m3	282.03 ± 2.8
491.06 K, Mass density=538.17 kg/m3	283.07 ± 2.8
491.45 K, Mass density=538.17 kg/m3	285.52 ± 2.9
491.64 K, Mass density=538.17 kg/m3	290.85 ± 3
491.83 K, Mass density=538.17 kg/m3	286.92 ± 2.9
492.02 K, Mass density=538.17 kg/m3	283.07 ± 2.9
492.21 K, Mass density=538.17 kg/m3	281.44 ± 3
492.4 K, Mass density=538.17 kg/m3	282.18 ± 3
492.59 K, Mass density=538.17 kg/m3	258.31 ± 2.7
492.78 K, Mass density=538.17 kg/m3	240.45 ± 2.6
492.97 K, Mass density=538.17 kg/m3	211.02 ± 2.4
493.16 K, Mass density=538.17 kg/m3	211.77 ± 2.4
493.36 K, Mass density=538.17 kg/m3	215.03 ± 2.4
493.55 K, Mass density=474.07 kg/m3	293.52 ± 3
493.55 K, Mass density=538.17 kg/m3	215.03 ± 2.3
493.74 K, Mass density=474.07 kg/m3	285.37 ± 3
493.93 K, Mass density=474.07 kg/m3	291.3 ± 3
494.12 K, Mass density=474.07 kg/m3	294.26 ± 3
494.31 K, Mass density=474.07 kg/m3	297.97 ± 3
494.5 K, Mass density=474.07 kg/m3	291.3 ± 3
494.69 K, Mass density=474.07 kg/m3	288.33 ± 3
494.88 K, Mass density=474.07 kg/m3	272.77 ± 3
495.07 K, Mass density=474.07 kg/m3	277.21 ± 3
495.26 K, Mass density=474.07 kg/m3	272.77 ± 3
495.45 K, Mass density=474.07 kg/m3	279.44 ± 3
501.71 K, Mass density=76.44 kg/m3	522.04 ± 5.3
501.9 K, Mass density=76.44 kg/m3	509.29 ± 5.1
502.09 K, Mass density=76.44 kg/m3	497.21 ± 5
502.28 K, Mass density=76.44 kg/m3	502.03 ± 5
502.46 K, Mass density=76.44 kg/m3	499.06 ± 5
502.65 K, Mass density=76.44 kg/m3	495.28 ± 5
502.84 K, Mass density=76.44 kg/m3	491.43 ± 5
503.03 K, Mass density=76.44 kg/m3	490.83 ± 5
503.22 K, Mass density=76.44 kg/m3	487.05 ± 4.9
503.41 K, Mass density=76.44 kg/m3	488.98 ± 4.9
503.6 K, Mass density=76.44 kg/m3	491.8 ± 5
503.97 K, Mass density=76.44 kg/m3	497.73 ± 5
504.16 K, Mass density=76.44 kg/m3	500.54 ± 5
504.35 K, Mass density=76.44 kg/m3	512.25 ± 5.2
504.54 K, Mass density=76.44 kg/m3	524.04 ± 5.3
504.73 K, Mass density=76.44 kg/m3	551.69 ± 5.6
504.92 K, Mass density=76.44 kg/m3	530.27 ± 5.9
505.11 K, Mass density=76.44 kg/m3	521.82 ± 6.3
505.29 K, Mass density=76.44 kg/m3	499.58 ± 6.2
505.48 K, Mass density=76.44 kg/m3	412.34 ± 6.2
505.67 K, Mass density=76.44 kg/m3	315.91 ± 6
505.86 K, Mass density=76.44 kg/m3	251.94 ± 7.6
506.05 K, Mass density=76.44 kg/m3	248.83 ± 7
510.37 K, Mass density=474.07 kg/m3	291.3 ± 3
510.55 K, Mass density=474.07 kg/m3	290.56 ± 3
510.74 K, Mass density=474.07 kg/m3	293.52 ± 3
510.93 K, Mass density=474.07 kg/m3	293.52 ± 3
511.49 K, Mass density=474.07 kg/m3	292.04 ± 3
511.68 K, Mass density=474.07 kg/m3	295 ± 3
511.87 K, Mass density=474.07 kg/m3	292.78 ± 3
512.43 K, Mass density=474.07 kg/m3	296.49 ± 3
512.61 K, Mass density=474.07 kg/m3	295.75 ± 3
512.8 K, Mass density=474.07 kg/m3	295.75 ± 3
513.18 K, Mass density=95.93 kg/m3	639 ± 6.4
513.36 K, Mass density=95.93 kg/m3	647.6 ± 6.5
513.36 K, Mass density=474.07 kg/m3	281.66 ± 3
513.55 K, Mass density=95.93 kg/m3	645.08 ± 6.4
